Patent US10383880B2 (Reset Therapeutics, Inc., priority 2012, dated 2019)

Tested on: Per2-dLuc U2OS reporter cells
Assay: Per2 assay for evaluating the potency of test compounds (high-throughput circadian assay)
Format: cell-based
Settings: Homo sapiens, U2OS, stable U2OS reporter cells harboring Per2-dLuc; luminescence monitored over 4-5 days at 35° C.
How it was run: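 Compounds (0.5% DMSO final) were added right after serum-shock synchronization of Per2-dLuc U2OS reporter cells in minimal medium containing 1.0 mM beetle luciferin. Reporter luminescence was followed at 35 °C for 4–5 days to extract rhythm period, amplitude and phase, and EC50 values were obtained from these.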

Row | Structure (SMILES) | EC50
1 | CC(C)(C(O)Cn1c2ccc(F)cc2c2cc(F)ccc21)N1CCCS1(=O)=O (centres unmarked) [Compound 244, 2-(4-(3,6-Difluoro-9H-carbazol-9-yl)-3-hydroxy-2-methylbutan-2-yl)isothiazolidine-1,1-dioxide] | 57 nM
2 | CC(O)(CN1CCN(C2CCCC2)S1(=O)=O)Cn1c2ccc(F)cc2c2cc(F)ccc21 (centres unmarked) [Compound 232] | 2580 nM
3 | COCc1ccc(N(CC(O)Cn2c3ccc(F)cc3c3cc(F)ccc32)S(C)(=O)=O)cc1 (centres unmarked) [Compound 209, N-(3-(3,6-Difluoro-9H-carbazol-9-yl)-2-hydroxypropyl)-N-(4-(methoxymethyl)phenyl)methanesulfonamide] | 4810 nM
4 | COCCN(CC(O)Cn1c2ccc(F)cc2c2cc(F)ccc21)S(C)(=O)=O (centres unmarked) [Compound 90, N-(3-(3,6-Difluoro-9H-carbazol-9-yl)-2-hydroxypropyl)-N-(2-methoxyethyl)methanesulfonamide] | 406 nM
5 | CCCN(CC(O)Cn1c2cc(F)ccc2c2ccc(F)cc21)S(C)(=O)=O (centres unmarked) [Compound 157, N-(3-(2,7-Difluoro-9H-carbazol-9-yl)-2-hydroxypropyl)-N-propylmethanesulfonamide] | 895 nM
6 | CS(=O)(=O)N(CC(O)Cn1c2ccccc2c2ccccc21)C1(C(F)(F)F)CCC1 (centres unmarked) [Compound 146, N-(3-(9H-Carbazol-9-yl)-2-hydroxypropyl)-N-(1-(trifluoromethyl)cyclobutyl)methanesulfonamide] | 1160 nM
7 | O=S(=O)(c1cn[nH]c1)N(Cc1ccco1)CC(O)Cn1c2ccccc2c2ccccc21 (centres unmarked) [Compound 5, N-(3-(9H-Carbazol-9-yl)-2-hydroxypropyl)-N-(furan-2-ylmethyl)-1H-pyrazole-4-sulfonamide] | 8190 nM
8 | CC1CC(N(CC(C)(O)Cn2c3ccc(F)cc3c3cc(F)ccc32)S(C)(=O)=O)C1 (centres unmarked) [Compound 191, N-(3-(3,6-Difluoro-9H-carbazol-9-yl)-2-hydroxy-2-methylpropyl)-N-(3-methylcyclobutyl)methanesulfonamide] | 1190 nM
9 | O=S(=O)(CCC(F)(F)F)N(Cc1ccco1)CC(O)Cn1c2ccccc2c2ccccc21 (centres unmarked) [Compound 6, N-(3-(9H-Carbazol-9-yl)-2-hydroxypropyl)-3,3,3-trifluoro-N-(furan-2-ylmethyl)propane-1-sulfonamide] | 964 nM
10 | CN(CC(O)Cn1c2ccc(F)cc2c2cc(F)ccc21)S(C)(=O)=O (centres unmarked) [Compound 89, N-(3-(3,6-Difluoro-9H-carbazol-9-yl)-2-hydroxypropyl)-N-methylmethanesulfonamide] | 360 nM
11 | COC1CN(CC(C)(O)Cn2c3ccc(F)cc3c3cc(F)ccc32)S(=O)(=O)C1 (centres unmarked) [Compound 182, 2-(3-(3,6-Difluoro-9H-carbazol-9-yl)-2-hydroxy-2-methylpropyl)-4-methoxyisothiazolidine-1,1-dioxide] | 241 nM
12 | CS(=O)(=O)N(Cc1ccco1)CC(O)Cn1c2ccc(F)cc2c2cc(F)ccc21 (centres unmarked) [Compound 88, N-(3-(3,6-Difluoro-9H-carbazol-9-yl)-2-hydroxypropyl)-N-(furan-2-ylmethyl)methanesulfonamide] | 940 nM
13 | CS(=O)(=O)N(CC(O)Cn1c2ccccc2c2ccccc21)C1CCCC(F)(F)C1 (centres unmarked) [Compound 134, N-(3-(9H-Carbazol-9-yl)-2-hydroxypropyl)-N-(3,3-difluorocyclohexyl)methanesulfonamide] | 1080 nM
14 | CS(=O)(=O)N(CC(O)Cn1c2ccccc2c2ccccc21)CC1CCCCO1 (centres unmarked) [Compound 53, N-(3-(9H-Carbazol-9-yl)-2-hydroxypropyl)-N-((tetrahydro-2H-pyran-2-yl)methyl)methanesulfonamide] | 578 nM
15 | O=S1(=O)CCCCN1C[C@@H](O)Cn1c2ccccc2c2ccccc21 [Compound 38, (S)-N-(3-(9H-Carbazol-9-yl)-2-hydroxypropyl)-1,2-thiazinane 1,1-dioxide] | 11 nM
16 | CC(O)(CN1CCNS1(=O)=O)Cn1c2ccc(F)cc2c2cc(F)ccc21 (centres unmarked) [Compound 176] | 125 nM
17 | CC(C)(C(O)Cn1c2ccccc2c2ccccc21)N1CCCS1(=O)=O (centres unmarked) [Compound 243, 2-(4-(9H-Carbazol-9-yl)-3-hydroxy-2-methylbutan-2-yl)-isothiazolidine-1,1-dioxide] | 42 nM
18 | CCCN(CC(C)(O)Cn1c2ccc(F)cc2c2cc(F)ccc21)S(C)(=O)=O (centres unmarked) [Compound 151, N-(3-(3,6-Difluoro-9H-carbazol-9-yl)-2-hydroxy-2-methylpropyl)-N-propylmethanesulfonamide] | 2260 nM
19 | O=S1(=O)CCCN1CC(O)Cn1c2ccc(F)cc2c2c(F)cccc21 (centres unmarked) [Compound 108, N-(3-(3,5-Difluoro-9H-carbazol-9-yl)-2-hydroxypropyl)-isothiazolidine-1,1-dioxide] | 388 nM
20 | O=S1(=O)N(CC(O)Cn2c3ccc(F)cc3c3cc(F)ccc32)CCCN1C1CCC1 (centres unmarked) [Compound 228, 2-(3-(3,6-Difluoro-9H-carbazol-9-yl)-2-hydroxypropyl)-6-cyclobutyl-1,2,6-thiadiazinane-1,1-dioxide] | 3420 nM
21 | CS(=O)(=O)N(CC(O)Cn1c2ccccc2c2ccccc21)CC1CC2CCC1O2 (single isomer, unassigned) [Compound 69, N-(7-Oxabicyclo[2.2.1]heptan-2-ylmethyl)-N-(3-(9H-carbazol-9-yl)-2-hydroxypropyl)methanesulfonamide] | 759 nM
22 | CC1(C)CCN(CC(O)Cn2c3ccc(F)cc3c3cc(F)ccc32)S1(=O)=O (centres unmarked) [Compound 178, 2-(3-(3,6-Difluoro-9H-carbazol-9-yl)-2-hydroxypropyl)-5,5-dimethylisothiazolidine-1,1-dioxide] | 73 nM
23 | CC(C)Oc1ccc(N(CC(O)Cn2c3ccc(F)cc3c3cc(F)ccc32)S(C)(=O)=O)cc1 (centres unmarked) [Compound 210, N-(3-(3,6-Difluoro-9H-carbazol-9-yl)-2-hydroxypropyl)-N-(4-isopropoxyphenyl)methanesulfonamide] | 7210 nM
24 | CCS(=O)(=O)N(Cc1ccco1)CC(O)Cn1c2ccccc2c2ccccc21 (centres unmarked) [Compound 2, N-(3-(9H-Carbazol-9-yl)-2-hydroxypropyl)-N-(furan-2-ylmethyl)ethanesulfonamide] | 742 nM
25 | Cc1ccc(S(=O)(=O)N(C)c2ccc(N(CC(O)Cn3c4ccccc4c4ccccc43)S(C)(=O)=O)cc2)cc1 (centres unmarked) [Compound 31, N-(4-(N-(3-(9H-Carbazol-9-yl)-2-hydroxypropyl)methylsulfonamido)phenyl)-N,4-dimethylbenzenesulfonamide] | 1400 nM
26 | CS(=O)(=O)CCN(CC(O)Cn1c2ccccc2c2ccccc21)S(C)(=O)=O (centres unmarked) [Compound 55, N-(3-(9H-Carbazol-9-yl)-2-hydroxypropyl)-N-(2-(methylsulfonyl)ethyl)methanesulfonamide] | 2310 nM
27 | O=S(=O)(CC1CCOC1)N(Cc1ccco1)CC(O)Cn1c2ccccc2c2ccccc21 (centres unmarked) [Compound 17, N-(3-(9H-Carbazol-9-yl)-2-hydroxypropyl)-N-(furan-2-ylmethyl)-1-(tetrahydrofuran-3-yl)methanesulfonamide] | 2490 nM
28 | CS(=O)(=O)N(CC(O)Cn1c2ccccc2c2ccccc21)C1CCCCC1 (centres unmarked) [Compound 71, N-(3-(9H-Carbazol-9-yl)-2-hydroxypropyl)-N-cyclohexylmethanesulfonamide] | 3300 nM

Same assay, conditions: stable U2OS reporter cells harboring Per2-dLuc; luminescence monitored over 4-5 days at 35° C.

Row | Structure (SMILES) | EC50
29 | CC1CCCC1N(CC(O)Cn1c2ccc(F)cc2c2cc(F)ccc21)S(C)(=O)=O (single isomer, unassigned) [Compound 193B, N-(3-(3,6-Difluoro-9H-carbazol-9-yl)-2-hydroxypropyl)-N-(2-methylcyclopentyl)methanesulfonamide] | 654 nM
